Results reported in patent publication US20060014790A1, “Methods of treatment of amyloidosis using spirocyclohexane aspartyl-protease inhibitors” (priority 2004, published 2006).
Blank lines part the entries; values can stand above or below the molecule they belong to.

Assays:
[1] = system: A-beta; test: Efficacy of compounds to inhibit A-beta concentration (% inhibition vs vehicle control); assay type: in vivo, rat
Experimental: Efficacious compounds of the present invention are those able to decrease the amount of A-beta produced compared to a control, where beta-secretase mediated cleavage is observed and measured in the absence of the compounds. Detection of efficacy can be by analysis of A-beta levels, for example, by immunoassay, fluorometric or chromogenic assay, HPLC, or other means of detection. The efficacy of the compounds of formula (I) was determined as a percentage inhibition corresponding to A-beta concentrations for tissue treated and untreated with compound.
The invention encompasses compounds of formula (I) that are efficacious.

[2] = biological target: catE / beta-secretase (BACE); test: CatE/BACE selectivity (ratio of IC50 values); assay type: biochemical; conditions: each value is an average of four experimental runs; multiple values = more than one experiment
Experimental: Selectivity was calculated as a ratio of inhibition (IC50) values in which the inhibition of beta-secretase was compared to the inhibition of other aspartyl proteases.
Selectivity is reported as the ratio of IC50(catE):IC50(BACE).
In the following examples, each value is an average of four experimental runs and multiple values for one compound indicate that more than one experiment was conducted.

[3] = Oral bioavailability after IV and PO administration; assay type: in vivo; conditions: male, Sprague-Dawley, rat, plasma, read-out: Rat % F
Experimental: The invention encompasses compounds of formula (I) that are orally bioavailable. Oral bioavailability can be determined following both an intravenous (IV) and oral (PO) administration of a test compound.
Oral Bioavailability was determined in the male Sprague-Dawley rat following both IV and PO administration of test compound. Two month-old male rats (250-300 g) were surgically implanted with polyethylene (PE-50) cannula in the jugular vein while under isoflurane anesthesia the day before the in-life phase. Animals were fasted overnight with water ad libitum, then dosed the next day. The dosing regime consisted of either a 5 mg/kg (2.5 mL/kg) IV dose (N=3) administered to the jugular vein cannula, then flushed with saline, or a 10 mg/kg (5 mL/kg) PO dose (N=3) by esophageal gavage. Compounds were formulated with 10% Solutol in 5% dextrose at 2 mg/mL. […]
Compounds were extracted from samples following precipitation of the plasma proteins by methanol. […] Experimental samples were compared to calibration curves prepared in parallel with aged match rat plasma and quantitated with a weighted 1/x linear regression. […]
AUC is calculated from the linear trapezoidal rule by AUC=((C2+C1)/2)×(T2−T1) where C is concentration and T is time.
Pharmacokinetic parameters were calculated by a non-compartmental approach. […]

[4] = Brain uptake (brain penetration after IV administration); conditions: CF-1, mouse, in vivo, 10 μmol/kg
Experimental: The following assay was employed to determine the brain penetration of compounds encompassed by the present invention.
In-life phase: Test compounds were administered to CF-1 (20-30 g) mice at 10 μmol/kg (4 to 7 mg/kg) following IV administration in the tail vein. Two time-points, 5 and 60 min, were collected post dose. Four mice were harvested for heparinized plasma and non-perfused brains at each time-point for a total of 8 mice per compound.
Analytical phase: Samples were extracted and evaporated to dryness, then reconstituted and injected onto a reverse phase chromatographic column while monitoring the effluent with a triple quadrupole mass spectrometer. Quantitation was then performed with a 1/x^2 weighted fit of the least-squares regression from calibration standards prepared in parallel with the in vivo samples. The lower limit of quantitation (LOQ) is generally 1 ng/mL and 0.5 ng/g for the plasma and brain respectively. Data was reported in micromolar (μM) units. Brain levels were corrected for plasma volumes (16 μL/g).

SMILES: CC(=O)NC(Cc1cc(F)cc(F)c1)C(O)CNC1(c2cccc(C(C)(C)C)c2)CCC(O)CC1 (single isomer, unassigned) [195-5 Diastereomer A, N-[3-[1-(3-tert-Butyl-phenyl)-4-hydroxy-cyclohexylamino]-1-(3,5-difluoro-benzyl)-2-hydroxy-propyl]-acetamide]
Efficacy (% Inhibition, 100 mg/kg) plasma [1]: 55%

SMILES: CONC1CCC(NCC(O)C(Cc2cc(F)cc(F)c2)NC(C)=O)(c2cccc(C(C)(C)C)c2)CC1 (single isomer, unassigned) [195-7 Diastereomer A, N-(4-(1-(3-tert-butylphenyl)-4-(methoxyamino)cyclohexylamino)-1-(3,5-difluorophenyl)-3-hydroxybutan-2-yl)acetamide]
Efficacy (% Inhibition, 100 mg/kg) plasma [1]: 50%

SMILES: CC(=O)NC(Cc1cc(F)cc(F)c1)C(O)CNC1(c2cccc(C(C)(C)C)c2)CCC(NO)CC1 (single isomer, unassigned) [195-8 Diastereomer A, N-(4-(1-(3-tert-butylphenyl)-4-(hydroxyamino)cyclohexylamino)-1-(3,5-difluorophenyl)-3-hydroxybutan-2-yl)acetamide]
Efficacy (% Inhibition, 100 mg/kg) cortex [1]: 7%

SMILES: CC(=O)NC(Cc1cc(F)cc(F)c1)C(O)CNC1(c2cccc(C(C)(C)C)c2)CCCCC1 (stereo not drawn) [Example 195-1, N-[3-[1-(3-tert-Butyl-phenyl)-cyclohexylamino]-1-(3,5-difluoro-benzyl)-2-hydroxy-propyl]-acetamide]
Efficacy (% Inhibition, 100 mg/kg) cortex [1]: 62%
Efficacy (% Inhibition, 100 mg/kg) plasma [1]: 50%

SMILES: CC(=O)NC(Cc1cc(F)cc(F)c1)C(O)CNC1(c2cccc(C(C)C)c2)CCC(=O)CC1 (stereo not drawn) [Example 195-2, N-{1-(3,5-Difluoro-benzyl)-2-hydroxy-3-[1-(3-isopropyl-phenyl)-4-oxo-cyclohexylamino]-propyl}acetamide]
Efficacy (% Inhibition, 100 mg/kg) cortex [1]: 47%
Efficacy (% Inhibition, 100 mg/kg) plasma [1]: 59%

SMILES: CC(=O)NC(Cc1cc(F)cc(F)c1)C(O)CNC1(c2cccc(C(C)(C)C)c2)CCC(=O)CC1 (stereo not drawn) [Example 195-3, N-[3-[1-(3-tert-Butyl-phenyl)-4-oxo-cyclohexylamino]-1-(3,5-difluoro-benzyl)-2-hydroxy-propyl]-acetamide]
Efficacy (% Inhibition, 100 mg/kg) plasma [1]: 58%

SMILES: CC(=O)NC(Cc1cc(F)cc(F)c1)C(O)CNC1(c2cccc(-n3cccn3)c2)CCCCC1 (stereo not drawn) [Example 195-4, N-{1-(3,5-Difluoro-benzyl)-2-hydroxy-3-[1-(3-pyrazol-1-yl-phenyl)-cyclohexylamino]-propyl}-acetamide]
Efficacy (% Inhibition, 100 mg/kg) plasma [1]: 67%

SMILES: COC1CCC(NCC(O)C(Cc2cc(F)cc(F)c2)NC(C)=O)(c2cccc(C(C)(C)C)c2)CC1 (stereo not drawn) [Example 195-6, N-[3-[1-(3-tert-Butyl-phenyl)-4-methoxy-cyclohexylamino]-1-(3,5-difluoro-benzyl)-2-hydroxy-propyl]-acetamide]
Efficacy (% Inhibition, 100 mg/kg) plasma [1]: 49%

SMILES: CSC1CCC(NCC(O)C(Cc2cc(F)cc(F)c2)NC(C)=O)(c2cccc(C(C)(C)C)c2)CC1 (stereo not drawn) [Example 195-9, N-[3-[1-(3-tert-Butyl-phenyl)-4-methylsulfanyl-cyclohexylamino]-1-(3,5-difluoro-benzyl)-2-hydroxy-propyl]-acetamide]
Efficacy (% Inhibition, 100 mg/kg) plasma [1]: 38%

SMILES: CC(=O)NC(Cc1cc(F)cc(F)c1)C(O)CNC1(c2cc(F)cc(C(C)(C)C)c2)CCCCC1 (stereo not drawn) [Example 195-10, N-(4-(1-(3-tert-butyl-5-fluorophenyl)cyclohexylamino)-1-(3,5-difluorophenyl)-3-hydroxybutan-2-yl)acetamide]
Efficacy (% Inhibition, 100 mg/kg) plasma [1]: 30%

SMILES: CC(=O)NC(Cc1cc(F)cc(F)c1)C(O)CNC1(c2cccc(C(C)C)c2)CCC(=O)CC1 (stereo not drawn) [Example 196B-2, N-{1-(3,5-Difluoro-benzyl)-2-hydroxy-3-[1-(3-isopropyl-phenyl)-4-oxo-cyclohexylamino]-propyl}-acetamide]
IC50 catE/IC50 BACE [2]: 3.7

SMILES: CC(=O)NC(Cc1cc(F)cc(F)c1)C(O)CNC1(c2cccc(C(C)(C)C)c2)CCC(C)CC1 (stereo not drawn) [Example 196B-5, N-[3-[1-(3-tert-Butyl-phenyl)-4-methyl-cyclohexylamino]-1-(3,5-difluoro-benzyl)-2-hydroxy-propyl]-acetamide]
IC50 catE/IC50 BACE [2]: 3.1

SMILES: CC(=O)NC(Cc1cc(F)cc(F)c1)C(O)CNC1(c2cccc(-c3ccsc3)c2)CCC(=O)CC1 (stereo not drawn) [Example 196B-10, N-(1-(3,5-difluorophenyl)-3-hydroxy-4-(4-oxo-1-(3-(thiophen-3-yl)phenyl)cyclohexylamino)butan-2-yl)acetamide]
IC50 catE/IC50 BACE [2]: 5.6

SMILES: CC(=O)NC(Cc1cc(F)cc(F)c1)C(O)CNC1(c2cccc(-n3cccn3)c2)CCC2(CC1)OCCO2 (stereo not drawn) [Example 196B-13, N-{1-(3,5-Difluoro-benzyl)-2-hydroxy-3-[8-(3-pyrazol-1-yl-phenyl)-1,4-dioxa-spiro[4.5]dec-8-ylamino]-propyl}-acetamide]
IC50 catE/IC50 BACE [2]: 2.5

IC50 catE/IC50 BACE [2]: 1.8
SMILES: CC(=O)NC(Cc1cc(F)cc(F)c1)C(O)CNC1(c2cccc(C(C)(C)C)c2)CCN(CCC#N)CC1 (stereo not drawn) [Example 196B-26, N-[3-[4-(3-tert-Butyl-phenyl)-1-(2-cyano-ethyl)-piperidin-4-ylamino]-1-(3,5-difluoro-benzyl)-2-hydroxy-propyl]-acetamide]

IC50 catE/IC50 BACE [2]: >2,0
SMILES: CC(=O)NC(Cc1cc(F)cc(F)c1)C(O)CNC1(c2cccc(C(C)(C)C)c2)CCCN(C)C1 (stereo not drawn) [Example 196B-32, N-(4-(3-(3-tert-butylphenyl)-1-methylpiperidin-3-ylamino)-1-(3,5-difluorophenyl)-3-hydroxybutan-2-yl)acetamide]

SMILES: CC(=O)NC(Cc1cc(F)cc(F)c1)C(O)CNC1(c2cccc(Br)c2)CCC2(CC1)OCCO2 (stereo not drawn) [Example 196B-40, N-[3-[8-(3-Bromo-phenyl)-1,4-dioxa-spiro[4.5]dec-8-ylamino]-1-(3,5-difluoro-benzyl)-2-hydroxy-propyl]-acetamide]
IC50 catE/IC50 BACE [2]: 2.8

SMILES: CC(=O)NC(Cc1cc(F)cc(F)c1)C(O)CNC1(c2cccc(C(C)(C)C)c2)CCC(C#N)CC1 (stereo not drawn) [Example 196B-41, N-[3-[1-(3-tert-Butyl-phenyl)-4-cyano-cyclohexylamino]-1-(3,5-difluoro-benzyl)-2-hydroxy-propyl]-acetamide]
IC50 catE/IC50 BACE [2]: 2.5

SMILES: CC(=O)NC(Cc1cc(F)cc(F)c1)C(O)CNC1(c2cccc(C(C)(C)C)c2)CCCCC1 (stereo not drawn) [Example 197-1, N-[3-[1-(3-tert-Butyl-phenyl)-cyclohexylamino]-1-(3,5-difluoro-benzyl)-2-hydroxy-propyl]-acetamide]
bioavailability [3]: 20.2%

SMILES: CC(=O)NC(Cc1cc(F)cc(F)c1)C(O)CNC1(c2cccc(C(C)(C)C)c2)CCCCC1 (stereo not drawn) [Example 198-1, N-[3-[1-(3-tert-Butyl-phenyl)-cyclohexylamino]-1-(3,5-difluoro-benzyl)-2-hydroxy-propyl]-acetamide]
Kp at 5 min [4]: 1.7
Kp at 10 min [4]: 3

SMILES: CC(=O)NC(Cc1cc(F)cc(F)c1)C(O)CNC1(c2cccc(C(C)C)c2)CCC(=O)CC1 (stereo not drawn) [Example 198-3, N-{1-(3,5-Difluoro-benzyl)-2-hydroxy-3-[1-(3-isopropyl-phenyl)-4-oxo-cyclohexylamino]-propyl}-acetamide]
Kp at 5 min [4]: 0.5
Kp at 10 min [4]: 8.4

SMILES: CC(=O)NC(Cc1cc(F)cc(F)c1)C(O)CNC1(c2cccc(-c3ccsc3)c2)CCCCC1 (stereo not drawn) [Example 198-4, N-{1-(3,5-Difluoro-benzyl)-2-hydroxy-3-[1-(3-thiophen-3-yl-phenyl)-cyclohexylamino]-propyl}acetamide]
Kp at 5 min [4]: 0.7
Kp at 10 min [4]: 3.7
